Reference: paper PMC10035947, “Development of novel anilinoquinazoline-based carboxylic acids as non-classical carbonic anhydrase IX and XII inhibitors” (Journal of Enzyme Inhibition and Medicinal Chemistry, 2023)
Like-named read-outs stand apart in the source and are kept apart here.

Key:
Experiment in all cases: NCI SRB assay
Assay type in all cases: cell-based, human
HOP-92 = settings: for CC50: read-out: LC50 (the source's name)
K-562 = settings: for CC50: read-out: LC50 (the source's name)
OVCAR-5 = settings: for CC50: read-out: LC50 (the source's name)
A549/ATCC = system: A549/ATCC
ACHN = settings: for GI50 / TGI / CC50: 5-dose; for CC50: read-out: LC50 (the source's name)
LOX IMVI = system: LOX IMVI
U251 = settings: for CC50: read-out: LC50 (the source's name)
HCC-2998 = settings: for CC50: read-out: LC50 (the source's name)
OVCAR-4 = settings: for CC50: read-out: LC50 (the source's name)
NCI-H322M = settings: for CC50: read-out: LC50 (the source's name)
NCI-H23 = system: NCI-H23
SW-620 = system: SW-620
RPMI-8226 = settings: for CC50: read-out: LC50 (the source's name)
SK-MEL-2 = system: SK-MEL-2
MALME-3M = settings: for CC50: read-out: LC50 (the source's name)
NCI/ADR-RES = settings: for CC50: read-out: LC50 (the source's name)
[1] = Homo sapiens, HOP-92, HOP-92, 5-dose
[2] = Homo sapiens, K562, K-562, 5-dose
[3] = Homo sapiens, U-251, U251, 5-dose
[4] = Homo sapiens, OVCAR-4, OVCAR-4, 5-dose
[5] = Homo sapiens, RPMI-8226, RPMI-8226, 5-dose

Cc1ccc(-c2nc(Nc3ccccc3C(=O)O)c3ccccc3n2)cc1 [6b, 2-((2-(p-Tolyl)quinazolin-4-yl)amino)benzoic acid]
TGI (HOP-92; HOP-92, 5-dose): 29.3 µM
TGI (HOP-92; HOP-92, 5-dose, listed as D - 835857): 2.93E-5 Molar
CC50 (HOP-92; HOP-92, 5-dose): < 100 µM
GI50 (HOP-92; [1]): 2.85 µM
CC50 (HOP-92; [1]): > 100 µM
GI50 (K-562; [2]): 7.05 µM
CC50 (K-562; [2]): > 100 µM
GI% (K-562; K-562, 10 μM): 82%
Growth Percent (K-562; K-562, 1.00E-5 Molar): 17.64%
TGI (K-562; K-562, 5-dose): <100 µM
TGI (K-562; K-562, 5-dose, listed as D - 835857): > 1.00E-4 Molar
CC50 (K-562; K-562, 5-dose): < 100 µM
CC50 (OVCAR-5; Homo sapiens, OVCAR-5, OVCAR-5, 5-dose): > 100 µM
GI50 (OVCAR-5; Homo sapiens, OVCAR-5, 5-dose): 21.8 µM
GI% (OVCAR-5; OVCAR-5, 10 μM): 34%
Growth Percent (OVCAR-5; OVCAR-5, 1.00E-5 Molar): 65.92%
TGI (OVCAR-5; OVCAR-5, 5-dose): 68.9 µM
TGI (OVCAR-5; OVCAR-5, 5-dose, listed as D - 835857): 6.89E-5 Molar
CC50 (OVCAR-5; OVCAR-5, 5-dose): < 100 µM
GI% (A549/ATCC; A549/ATCC, 10 μM): 70%
Growth Percent (A549/ATCC; A549/ATCC, 1.00E-5 Molar): 30.48%
LC50 (A549/ATCC; A549/ATCC, 5-dose): < 100 µM
TGI (A549/ATCC; A549/ATCC, 5-dose): <100 µM
TGI (A549/ATCC; A549/ATCC, 5-dose, listed as D - 835857): > 1.00E-4 Molar
LC50 (A549/ATCC; Homo sapiens, A549, A549/ATCC, 5-dose): > 100 µM
GI50 (A549/ATCC; Homo sapiens, A549/ATCC, 5-dose): 8.31 µM
GI% (ACHN; 10 μM): 92%
Growth Percent (ACHN; 1.00E-5 Molar): 7.89%
GI50 (ACHN): 6.4 µM
TGI (ACHN): 91.1 µM
TGI (ACHN; listed as D - 835857): 9.11E-5 Molar
CC50 (ACHN): < 100 µM
GI50 (ACHN; Homo sapiens): 6.44 µM
CC50 (ACHN; Homo sapiens): > 100 µM
GI% (LOX IMVI; 10 μM): 91%
Growth Percent (LOX IMVI; 1.00E-5 Molar): 8.57%
TGI (LOX IMVI; 5-dose): 31.6 µM
TGI (LOX IMVI; 5-dose, listed as D - 835857): 3.16E-5 Molar
GI50 (LOX IMVI; Homo sapiens, 5-dose): 10.2 µM
CC50 (LOX IMVI; Homo sapiens, 5-dose, read-out: LC50 (the source's name)): 97.7 µM
GI50 (U251; [3]): 5.58 µM
CC50 (U251; [3]): > 100 µM
GI% (U251; U251, 10 μM): 82%
Growth Percent (U251; U251, 1.00E-5 Molar): 18.45%
GI50 (U251; U251, 5-dose): 5.6 µM
TGI (U251; U251, 5-dose): 35.0 µM
TGI (U251; U251, 5-dose, listed as D - 835857): 3.50E-5 Molar
CC50 (U251; U251, 5-dose): < 100 µM
GI% (HCC-2998; HCC-2998, 10 μM): 95%
Growth Percent (HCC-2998; HCC-2998, 1.00E-5 Molar): 5.44%
TGI (HCC-2998; HCC-2998, 5-dose): 36.0 µM
TGI (HCC-2998; HCC-2998, 5-dose, listed as D - 835857): 3.60E-5 Molar
CC50 (HCC-2998; HCC-2998, 5-dose): < 100 µM
CC50 (HCC-2998; Homo sapiens, HCC 2998, HCC-2998, 5-dose): > 100 µM
GI50 (HCC-2998; Homo sapiens, HCC-2998, 5-dose): 12.4 µM
GI50 (OVCAR-4; [4]): 8.77 µM
CC50 (OVCAR-4; [4]): > 100 µM
GI% (OVCAR-4; OVCAR-4, 10 μM): 78%
Growth Percent (OVCAR-4; OVCAR-4, 1.00E-5 Molar): 21.83%
GI50 (OVCAR-4; OVCAR-4, 5-dose): 8.8 µM
TGI (OVCAR-4; OVCAR-4, 5-dose): <100 µM
TGI (OVCAR-4; OVCAR-4, 5-dose, listed as D - 835857): > 1.00E-4 Molar
CC50 (OVCAR-4; OVCAR-4, 5-dose): < 100 µM
GI% (NCI-H322M; 10 μM): 66%
Growth Percent (NCI-H322M; 1.00E-5 Molar): 33.77%
TGI (NCI-H322M; 5-dose): <100 µM
TGI (NCI-H322M; 5-dose, listed as D - 835857): > 1.00E-4 Molar
CC50 (NCI-H322M; 5-dose): < 100 µM
GI50 (NCI-H322M; Homo sapiens, 5-dose): 13.6 µM
CC50 (NCI-H322M; Homo sapiens, 5-dose): > 100 µM
LC50 (NCI-H23; Homo sapiens, NCI-H23, NCI-H23, 5-dose): > 100 µM
GI50 (NCI-H23; Homo sapiens, NCI-H23, 5-dose): 15.7 µM
GI% (NCI-H23; NCI-H23, 10 μM): 104%
Growth Percent (NCI-H23; NCI-H23, 1.00E-5 Molar): -4.11%
LC50 (NCI-H23; NCI-H23, 5-dose): < 100 µM
TGI (NCI-H23; NCI-H23, 5-dose): 44.4 µM
TGI (NCI-H23; NCI-H23, 5-dose, listed as D - 835857): 4.44E-5 Molar
LC50 (SW-620; Homo sapiens, SW-620, SW-620, 5-dose): > 100 µM
GI50 (SW-620; Homo sapiens, SW-620, 5-dose): 18.2 µM
GI% (SW-620; SW-620, 10 μM): 86%
Growth Percent (SW-620; SW-620, 1.00E-5 Molar): 14.46%
LC50 (SW-620; SW-620, 5-dose): < 100 µM
TGI (SW-620; SW-620, 5-dose): <100 µM
TGI (SW-620; SW-620, 5-dose, listed as D - 835857): > 1.00E-4 Molar
GI50 (RPMI-8226; [5]): 4.44 µM
CC50 (RPMI-8226; [5]): > 100 µM
GI% (RPMI-8226; RPMI-8226, 10 μM): 83%
Growth Percent (RPMI-8226; RPMI-8226, 1.00E-5 Molar): 17.08%
GI50 (RPMI-8226; RPMI-8226, 5-dose): 4.4 µM
TGI (RPMI-8226; RPMI-8226, 5-dose): <100 µM
TGI (RPMI-8226; RPMI-8226, 5-dose, listed as D - 835857): > 1.00E-4 Molar
CC50 (RPMI-8226; RPMI-8226, 5-dose): < 100 µM
GI50 (SK-MEL-2; Homo sapiens, SK-MEL-2, SK-MEL-2, 5-dose): 3.65 µM
CC50 (SK-MEL-2; Homo sapiens, SK-MEL-2, 5-dose, read-out: LC50 (the source's name)): 83.5 µM
GI% (SK-MEL-2; SK-MEL-2, 10 μM): 94%
Growth Percent (SK-MEL-2; SK-MEL-2, 1.00E-5 Molar): 5.75%
GI50 (SK-MEL-2; SK-MEL-2, 5-dose): 3.7 µM
TGI (SK-MEL-2; SK-MEL-2, 5-dose): 15.6 µM
TGI (SK-MEL-2; SK-MEL-2, 5-dose, listed as D - 835857): 1.56E-5 Molar
GI% (MALME-3M; 10 μM): 80%
Growth Percent (MALME-3M; 1.00E-5 Molar): 19.56%
TGI (MALME-3M; 5-dose): 64.5 µM
TGI (MALME-3M; 5-dose, listed as D - 835857): 6.45E-5 Molar
CC50 (MALME-3M; 5-dose): < 100 µM
GI50 (MALME-3M; Homo sapiens, 5-dose): 15.6 µM
CC50 (MALME-3M; Homo sapiens, Malme-3M, 5-dose): > 100 µM
GI% (NCI/ADR-RES; 10 μM): 95%
Growth Percent (NCI/ADR-RES; 1.00E-5 Molar): 5.16%
TGI (NCI/ADR-RES; 5-dose): 98.5 µM
TGI (NCI/ADR-RES; 5-dose, listed as D - 835857): 9.85E-5 Molar
CC50 (NCI/ADR-RES; 5-dose): < 100 µM
GI50 (NCI/ADR-RES; Homo sapiens, 5-dose): 16.8 µM
CC50 (NCI/ADR-RES; Homo sapiens, 5-dose): > 100 µM
